Experimental findings from patent publication US20120101136A1, “5-MEMBERED HETEROARYL DERIVATIVES USED AS SPHINGOSINE 1- PHOSPHATE RECEPTOR AGONISTS” (GLAXO GROUP LIMITED, priority 2009, published 2012) are described below.

What is called EC50 is the midpoint of the concentration-response curve. Higher therefore signals a less potent agent.

For the assay, the target named is T1, S1P1 receptor (human Endothelial Differentiation Gene 1 (EDG1)) (Homo sapiens, UniProt P21453).
T1 construct: TEV protease site; Gal4-VP16 transcription factor; expressed in transfected cells; host or cells: Tango GPCR-bla U2OS parental cell line (EDG1-bla/U2OS)
T1 sequence (P21453 whole entry, the tested form may be a part): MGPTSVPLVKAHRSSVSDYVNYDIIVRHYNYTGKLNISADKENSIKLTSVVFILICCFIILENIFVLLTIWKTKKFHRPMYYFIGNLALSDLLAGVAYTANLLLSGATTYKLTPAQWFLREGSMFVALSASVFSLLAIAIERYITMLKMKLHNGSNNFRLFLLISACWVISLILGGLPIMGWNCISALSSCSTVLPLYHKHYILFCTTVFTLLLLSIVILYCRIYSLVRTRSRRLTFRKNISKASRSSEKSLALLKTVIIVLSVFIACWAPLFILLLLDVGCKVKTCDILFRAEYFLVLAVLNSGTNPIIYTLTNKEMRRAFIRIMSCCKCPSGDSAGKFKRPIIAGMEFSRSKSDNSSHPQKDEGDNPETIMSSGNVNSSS
The assay can be described thus: S1P1 Tango Assay - 384 Well Format (EDG1-bla/U2OS cells). The class given is cell-based. Conditions: agonist, beta-lactamase reporter. As to the method:
Recombinant EDG1-bla/U2OS cells (contain the human Endothelial Differentiation Gene 1 (EDG1) linked to a TEV protease site and a Gal4-VP16 transcription factor stably integrated into the Tango GPCR-bla U2OS parental cell line) were harvested from growth medium and passaged into assay medium (Invitrogen Freestyle Expression Medium). The cells were starved for 24 hours at 37° C., 5% CO2, harvested and resuspended in assay medium at a density of ˜200,000 cells/ml.
All test compounds were dissolved in DMSO at a concentration of 10 mM and were prepared in 100% DMSO to provide 10 point dose response curves. Test compounds prepared by Bravo (Velocity 11) were added to wells in columns 2-11 and 13-22; DMSO was added to wells in columns 12 and 23 as unstimulated controls and assay medium was added to wells in columns 1 and 24 as cell-free controls. An S1P1 agonist was added to wells in row 2, columns 2-11 as stimulated controls and test compounds were added to wells in row 2, columns 13-22 and rows 3-15, columns 2-11/13-22 (row 1 and 16 were empty and not used). Compounds in solution were added to the assay plate (Greiner 781090) using an Echo (Labcyte) dose-response program (50 nl/well). The unstimulated and cell-free controls were loaded with 50 nl/well pure DMSO to ensure that the DMSO concentration was constant across the plate for all assays.
50 μl of the cell suspension was added to each well in columns 2-23 of the plate (˜10,000 cells per well). 50 μl of assay medium was added to each well in the cell-free controls (columns 1 and 24). The cells were incubated overnight at 37° C./5% CO2.
10 μl of 6× substrate mixture (LiveBLAzer™-FRET B/G substrate (CCF4-AM) Cat # K1096 from Invitrogen, Inc.) was added to each well using Bravo and the plates incubated at room temperature for 2 h in the dark. The plate was finally read on EnVision using one excitation channel (409 nm) and two emission channels (460 nm and 530 nm).
The blue/green emission ratio (460 nm/530 nm) was calculated for each well, by dividing the background-subtracted Blue emission values by the background-subtracted Green emission values. The dose response curve is based on sigmoidal dose-response model. All ratio data was normalized based upon the maximum emission ratio of positive control and minimum emission ratio of negative control (DMSO) on each plate. The intrinsic activity (IA) of each compound would be the normalized percentage of its maximum response after curve fitting.
Compound `CCc1cc(OCCCCC(=O)O)ccc1-c1noc(-c2ccc(OC(C)C)c(C#N)c2)n1` [Example 31, 5-{[4-(5-{3-cyano-4-[(1-methylethyl)oxy]phenyl}-1,2,4-oxadiazol-3-yl)-3-ethylphenyl]oxy}pentanoic acid] gave an EC50 of at most 0.1 nM. Then `CCc1cc(OCCCC(=O)O)ccc1-c1noc(-c2ccc(OC(C)C)c(C#N)c2)n1` [Example 32, 4-{[4-(5-{3-cyano-4-[(1-methylethyl)oxy]phenyl}-1,2,4-oxadiazol-3-yl)-3-ethylphenyl]oxy}butanoic acid], with at most 0.1 nM. The result for `CCc1cc(OCCNC)ccc1-c1noc(-c2ccc(OC(C)C)c(C#N)c2)n1` [Example 33, 5-[3-(2-ethyl-4-{[2-(methylamino)ethyl]oxy}phenyl)-1,2,4-oxadiazol-5-yl]-2-[(1-methylethyl)oxy]benzonitrile] reads at most 10 nM. Then `CCc1cc(OCCCCNC)ccc1-c1noc(-c2ccc(OC(C)C)c(Cl)c2)n1` [Example 34, (4-{[4-(5-{3-chloro-4-[(1-methylethyl)oxy]phenyl}-1,2,4-oxadiazol-3-yl)-3-ethylphenyl]oxy}butyl)methylamine], with at most 100 nM; and `CCc1cc(OCCCNC)ccc1-c1noc(-c2ccc(OC(C)C)c(Cl)c2)n1` [Example 35, (3-{[4-(5-{3-chloro-4-[(1-methylethyl)oxy]phenyl}-1,2,4-oxadiazol-3-yl)-3-ethylphenyl]oxy}propyl)methylamine], with at most 10 nM. The compound `CNCCOc1ccc(-c2noc(-c3ccc(OC(C)C)c(C#N)c3)n2)c(Cl)c1` [Example 36, 5-[3-(2-chloro-4-{[2-(methylamino)ethyl]oxy}phenyl)-1,2,4-oxadiazol-5-yl]-2-[(1-methylethyl)oxy]benzonitrile] had an EC50 of at most 1 nM. The result for `CNCCCOc1ccc(-c2noc(-c3ccc(OC(C)C)c(C#N)c3)n2)c(Cl)c1` [Example 37, 5-[3-(2-chloro-4-{[3-(methylamino)propyl]oxy}phenyl)-1,2,4-oxadiazol-5-yl]-2-[(1-methylethyl)oxy]benzonitrile] reads at most 1 nM; that for `CCc1cc(OCCCCNC)ccc1-c1noc(-c2ccc(OC(C)C)c(C#N)c2)n1` [Example 38, 5-[3-(2-ethyl-4-{[4-(methylamino)butyl]oxy}phenyl)-1,2,4-oxadiazol-5-yl]-2-[(1-methylethyl)oxy]benzonitrile], at most 10 nM; that for `CCc1cc(OCCCNC)ccc1-c1noc(-c2ccc(OC(C)C)c(C#N)c2)n1` [Example 39, 5-[3-(2-ethyl-4-{[3-(methylamino)propyl]oxy}phenyl)-1,2,4-oxadiazol-5-yl]-2-[(1-methylethyl)oxy]benzonitrile], at most 1 nM. The result for `CNCCCOc1ccc(-c2noc(-c3ccc(OC(C)C)c(Cl)c3)n2)c(C)c1` [Example 40, (3-{[4-(5-{3-chloro-4-[(1-methylethyl)oxy]phenyl}-1,2,4-oxadiazol-3-yl)-3-methylphenyl]oxy}propyl)methylamine] reads at most 10 nM; that for `CCc1cc(OCCCC(=O)O)ccc1-c1nc(-c2ccc(OC(C)C)c(C#N)c2)ns1` [Example 41, 4-{[4-(3-{3-cyano-4-[(1-methylethyl)oxy]phenyl}-1,2,4-thiadiazol-5-yl)-3-ethylphenyl]oxy}butanoic acid], at most 1 nM; that for `CCc1cc(OCCCC(=O)O)ccc1-c1nsc(-c2ccc(OC(C)C)c(C#N)c2)n1` [Example 42, 4-{[4-(5-{3-cyano-4-[(1-methylethyl)oxy]phenyl}-1,2,4-thiadiazol-3-yl)-3-ethylphenyl]oxy}butanoic acid], at most 10 nM. In turn, `CCc1cc(OCCCC(=O)O)ccc1-c1cnc(-c2ccc(OC(C)C)c(C#N)c2)s1` [Example 43, 4-{[4-(2-{3-cyano-4-[(1-methylethyl)oxy]phenyl}-1,3-thiazol-5-yl)-3-ethylphenyl]oxy}butanoic acid] showed an EC50 of at most 1 nM. Then `CCc1cc(OCCCNC)ccc1-c1cnc(-c2ccc(OC(C)C)c(C#N)c2)s1` [Example 44, 5-[5-(2-ethyl-4-{[3-(methylamino)propyl]oxy}phenyl)-1,3-thiazol-2-yl]-2-[(1-methylethyl)oxy]benzonitrile], with at most 1000 nM.
